Source: US20130209543A1, “ENHANCED TREATMENT REGIMENS USING MTOR INHIBITORS” (Intellikine LLC, priority 2011, published 2013)

How the values were obtained:
Type in all cases: biochemical
PI3K α = PI3K α (Homo sapiens, UniProt P42336); test: PI3K α kinase assay
PI3K β = PI3K β (Homo sapiens, UniProt P42338); test: PI3K β kinase assay
PI3K γ = PI3K γ (Homo sapiens, UniProt P48736); test: PI3K γ kinase assay
PI3K δ = PI3K δ (Homo sapiens, UniProt O00329); test: PI3K δ kinase assay
mTOR = molecular target: T1, mTOR (Homo sapiens, UniProt P42345); test: mTOR kinase inhibition assay; details: Table 2; read-out: mTORC IC50
T1 construct: purchased Invitrogen
Method: The compounds described herein and any other mTorC1/mTorC2 inhibitors known in the art can be tested against recombinant mTOR (Invitrogen) in an assay containing 50 mM HEPES, pH 7.5, 1 mM EGTA, 10 mM MgCl2, 2.5 mM, 0.01% Tween, 10 μM ATP (2.5 μCi of μ-32P-ATP), and 3 mg/mL BSA. Rat recombinant PHAS-1/4EBP1 (Calbiochem; 2 mg/mL) is used as a substrate. Reactions are terminated by spotting onto nitrocellulose, which is washed with 1M NaCl/1% phosphoric acid (approximately 6 times, 5-10 minutes each). Sheets are dried and the transferred radioactivity quantitated by phosphorimaging.
For instance, one can use Invitrogen's LanthaScreen™ Kinase assay to test the inhibitors of mTOR disclosed herein. This assay is a time resolved FRET platform that measures the phosphorylation of GFP labeled 4EBP1 by mTOR kinase. The kinase reaction is performed in a white 384 well microtitre plate. The total reaction volume is 20 μl per well and the reaction buffer composition is 50 mM HEPES pH7.5, 0.01% Polysorbate 20, 1 mM EGTA, 10 mM MnCl2, and 2 mM DTT. In the first step, each well receives 2 ul of test compound in 20% dimethylsulphoxide resulting in a 2% DMSO final concentration. Next, 8ul of mTOR diluted in reaction buffer is added per well for a 60 ng/ml final concentration. To start the reaction, 10 ul of an ATP/GFP-4EBP1 mixture (diluted in reaction buffer) is added per well for a final concentration of 10 μM ATP and 0.5 μM GFP-4EBP1. The plate is sealed and incubated for 1 hour at room temperature. […] The plate is sealed, incubated for 1 hour at room temperature, and then read on a plate reader set up for LanthaScreen™ TR-FRET. Data is analyzed and IC50s are generated using GraphPad Prism 5.

Chain of PI3K α (P42336 whole entry, species assumed): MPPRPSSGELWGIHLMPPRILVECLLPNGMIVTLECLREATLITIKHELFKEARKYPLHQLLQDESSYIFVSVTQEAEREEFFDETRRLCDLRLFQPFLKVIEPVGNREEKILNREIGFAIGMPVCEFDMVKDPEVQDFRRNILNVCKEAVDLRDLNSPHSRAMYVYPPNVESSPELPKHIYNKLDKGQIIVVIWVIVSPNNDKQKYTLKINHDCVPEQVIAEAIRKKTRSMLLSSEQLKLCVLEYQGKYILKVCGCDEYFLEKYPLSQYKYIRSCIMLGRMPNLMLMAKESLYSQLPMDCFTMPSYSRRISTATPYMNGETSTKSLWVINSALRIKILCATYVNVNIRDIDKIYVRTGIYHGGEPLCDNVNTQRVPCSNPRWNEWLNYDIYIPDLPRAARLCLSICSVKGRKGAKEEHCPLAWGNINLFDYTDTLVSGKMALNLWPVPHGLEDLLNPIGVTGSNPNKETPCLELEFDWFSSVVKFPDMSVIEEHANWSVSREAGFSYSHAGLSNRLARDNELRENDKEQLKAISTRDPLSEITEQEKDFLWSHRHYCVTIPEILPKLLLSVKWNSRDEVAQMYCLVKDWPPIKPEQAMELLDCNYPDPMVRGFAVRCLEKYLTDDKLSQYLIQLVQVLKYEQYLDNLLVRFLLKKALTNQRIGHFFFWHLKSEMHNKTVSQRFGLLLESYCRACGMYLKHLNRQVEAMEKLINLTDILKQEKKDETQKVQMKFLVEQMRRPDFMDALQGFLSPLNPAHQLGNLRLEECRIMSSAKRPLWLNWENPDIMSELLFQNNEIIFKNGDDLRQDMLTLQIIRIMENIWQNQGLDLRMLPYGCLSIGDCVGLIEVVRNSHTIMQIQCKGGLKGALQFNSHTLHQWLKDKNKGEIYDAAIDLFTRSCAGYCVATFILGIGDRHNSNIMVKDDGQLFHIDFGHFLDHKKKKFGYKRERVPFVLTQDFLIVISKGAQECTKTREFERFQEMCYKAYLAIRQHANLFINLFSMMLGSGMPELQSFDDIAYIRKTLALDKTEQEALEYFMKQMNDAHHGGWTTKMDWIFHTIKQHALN
Chain of PI3K α (P27986 whole entry partner, species assumed): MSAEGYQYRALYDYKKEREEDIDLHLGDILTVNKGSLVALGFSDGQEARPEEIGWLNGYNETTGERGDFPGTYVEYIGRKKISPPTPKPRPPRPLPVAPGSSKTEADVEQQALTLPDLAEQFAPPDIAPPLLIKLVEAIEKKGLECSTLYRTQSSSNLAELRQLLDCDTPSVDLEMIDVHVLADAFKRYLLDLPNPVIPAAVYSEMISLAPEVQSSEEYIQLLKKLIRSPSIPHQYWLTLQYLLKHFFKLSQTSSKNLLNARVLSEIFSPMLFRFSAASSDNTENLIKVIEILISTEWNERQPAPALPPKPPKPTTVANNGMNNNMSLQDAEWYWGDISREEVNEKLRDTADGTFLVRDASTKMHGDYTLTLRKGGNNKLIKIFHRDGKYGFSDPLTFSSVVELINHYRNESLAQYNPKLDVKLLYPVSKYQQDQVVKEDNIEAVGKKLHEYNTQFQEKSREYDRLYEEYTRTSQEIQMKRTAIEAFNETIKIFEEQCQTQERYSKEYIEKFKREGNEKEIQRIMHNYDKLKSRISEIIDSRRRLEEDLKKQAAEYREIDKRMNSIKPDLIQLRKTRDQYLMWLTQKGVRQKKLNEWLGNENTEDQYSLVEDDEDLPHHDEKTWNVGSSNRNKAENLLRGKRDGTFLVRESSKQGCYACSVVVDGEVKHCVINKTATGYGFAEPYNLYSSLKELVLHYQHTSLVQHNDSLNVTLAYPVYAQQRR
Chain of PI3K β (P42338 whole entry, species assumed): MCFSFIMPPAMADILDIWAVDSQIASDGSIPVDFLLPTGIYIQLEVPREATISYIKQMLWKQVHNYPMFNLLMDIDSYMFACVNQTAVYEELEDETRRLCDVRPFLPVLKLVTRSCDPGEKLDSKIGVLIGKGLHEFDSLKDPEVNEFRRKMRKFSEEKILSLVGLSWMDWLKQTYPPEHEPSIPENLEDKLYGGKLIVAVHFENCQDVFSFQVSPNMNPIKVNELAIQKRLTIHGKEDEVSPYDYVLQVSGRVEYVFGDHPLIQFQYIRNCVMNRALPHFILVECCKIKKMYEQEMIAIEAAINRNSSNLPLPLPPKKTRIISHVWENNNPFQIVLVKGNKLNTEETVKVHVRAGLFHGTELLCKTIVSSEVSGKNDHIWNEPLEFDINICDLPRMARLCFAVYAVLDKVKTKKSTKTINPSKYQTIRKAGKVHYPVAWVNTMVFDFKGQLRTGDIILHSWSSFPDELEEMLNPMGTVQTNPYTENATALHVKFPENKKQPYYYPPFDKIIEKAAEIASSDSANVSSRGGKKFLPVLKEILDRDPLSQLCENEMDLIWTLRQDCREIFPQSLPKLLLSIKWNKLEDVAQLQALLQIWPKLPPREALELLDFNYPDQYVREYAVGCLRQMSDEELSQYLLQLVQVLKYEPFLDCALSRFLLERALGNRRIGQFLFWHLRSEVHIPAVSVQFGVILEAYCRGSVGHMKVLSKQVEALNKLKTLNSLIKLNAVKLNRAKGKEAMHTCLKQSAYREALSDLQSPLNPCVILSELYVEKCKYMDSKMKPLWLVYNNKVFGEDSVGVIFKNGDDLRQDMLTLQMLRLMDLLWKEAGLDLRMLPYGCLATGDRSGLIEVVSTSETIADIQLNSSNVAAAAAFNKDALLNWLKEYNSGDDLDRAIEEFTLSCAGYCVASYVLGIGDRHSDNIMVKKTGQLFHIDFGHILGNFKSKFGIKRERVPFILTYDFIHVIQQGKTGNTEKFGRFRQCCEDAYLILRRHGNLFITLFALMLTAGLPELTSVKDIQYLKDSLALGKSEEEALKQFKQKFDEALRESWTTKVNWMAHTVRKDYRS
Chain of PI3K β (P27986 whole entry partner, species assumed): as the sequence (P27986 whole entry partner, species assumed) above
Chain of PI3K δ (O00329 whole entry, species assumed): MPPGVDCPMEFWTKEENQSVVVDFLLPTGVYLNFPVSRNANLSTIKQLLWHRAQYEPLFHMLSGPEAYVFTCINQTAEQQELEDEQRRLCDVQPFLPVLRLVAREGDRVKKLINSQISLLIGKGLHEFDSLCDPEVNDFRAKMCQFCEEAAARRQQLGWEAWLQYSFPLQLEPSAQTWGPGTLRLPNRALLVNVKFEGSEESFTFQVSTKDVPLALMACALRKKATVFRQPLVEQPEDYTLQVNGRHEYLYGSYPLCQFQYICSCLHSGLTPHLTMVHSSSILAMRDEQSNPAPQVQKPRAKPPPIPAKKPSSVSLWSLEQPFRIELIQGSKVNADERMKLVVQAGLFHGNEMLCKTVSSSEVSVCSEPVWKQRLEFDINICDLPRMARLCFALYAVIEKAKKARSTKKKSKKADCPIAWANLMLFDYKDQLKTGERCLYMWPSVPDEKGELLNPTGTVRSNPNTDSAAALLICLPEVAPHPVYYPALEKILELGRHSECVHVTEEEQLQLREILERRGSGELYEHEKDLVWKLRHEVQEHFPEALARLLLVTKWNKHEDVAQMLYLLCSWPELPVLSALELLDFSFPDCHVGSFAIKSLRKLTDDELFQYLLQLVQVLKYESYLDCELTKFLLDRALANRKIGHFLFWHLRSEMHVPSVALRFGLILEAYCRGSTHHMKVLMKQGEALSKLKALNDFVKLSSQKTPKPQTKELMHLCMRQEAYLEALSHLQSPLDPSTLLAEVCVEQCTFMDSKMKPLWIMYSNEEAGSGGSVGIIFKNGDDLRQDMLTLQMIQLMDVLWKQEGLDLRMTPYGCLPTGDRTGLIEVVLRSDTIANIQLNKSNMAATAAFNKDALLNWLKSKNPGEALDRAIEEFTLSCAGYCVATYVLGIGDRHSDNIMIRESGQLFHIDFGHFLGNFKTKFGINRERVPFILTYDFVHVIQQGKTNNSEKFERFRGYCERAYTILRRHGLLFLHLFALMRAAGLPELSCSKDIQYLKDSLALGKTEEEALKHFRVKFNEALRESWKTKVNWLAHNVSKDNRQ
Chain of PI3K δ (P27986 whole entry partner, species assumed): as the sequence (P27986 whole entry partner, species assumed) above
Chain of PI3K γ (P48736 whole entry, species assumed): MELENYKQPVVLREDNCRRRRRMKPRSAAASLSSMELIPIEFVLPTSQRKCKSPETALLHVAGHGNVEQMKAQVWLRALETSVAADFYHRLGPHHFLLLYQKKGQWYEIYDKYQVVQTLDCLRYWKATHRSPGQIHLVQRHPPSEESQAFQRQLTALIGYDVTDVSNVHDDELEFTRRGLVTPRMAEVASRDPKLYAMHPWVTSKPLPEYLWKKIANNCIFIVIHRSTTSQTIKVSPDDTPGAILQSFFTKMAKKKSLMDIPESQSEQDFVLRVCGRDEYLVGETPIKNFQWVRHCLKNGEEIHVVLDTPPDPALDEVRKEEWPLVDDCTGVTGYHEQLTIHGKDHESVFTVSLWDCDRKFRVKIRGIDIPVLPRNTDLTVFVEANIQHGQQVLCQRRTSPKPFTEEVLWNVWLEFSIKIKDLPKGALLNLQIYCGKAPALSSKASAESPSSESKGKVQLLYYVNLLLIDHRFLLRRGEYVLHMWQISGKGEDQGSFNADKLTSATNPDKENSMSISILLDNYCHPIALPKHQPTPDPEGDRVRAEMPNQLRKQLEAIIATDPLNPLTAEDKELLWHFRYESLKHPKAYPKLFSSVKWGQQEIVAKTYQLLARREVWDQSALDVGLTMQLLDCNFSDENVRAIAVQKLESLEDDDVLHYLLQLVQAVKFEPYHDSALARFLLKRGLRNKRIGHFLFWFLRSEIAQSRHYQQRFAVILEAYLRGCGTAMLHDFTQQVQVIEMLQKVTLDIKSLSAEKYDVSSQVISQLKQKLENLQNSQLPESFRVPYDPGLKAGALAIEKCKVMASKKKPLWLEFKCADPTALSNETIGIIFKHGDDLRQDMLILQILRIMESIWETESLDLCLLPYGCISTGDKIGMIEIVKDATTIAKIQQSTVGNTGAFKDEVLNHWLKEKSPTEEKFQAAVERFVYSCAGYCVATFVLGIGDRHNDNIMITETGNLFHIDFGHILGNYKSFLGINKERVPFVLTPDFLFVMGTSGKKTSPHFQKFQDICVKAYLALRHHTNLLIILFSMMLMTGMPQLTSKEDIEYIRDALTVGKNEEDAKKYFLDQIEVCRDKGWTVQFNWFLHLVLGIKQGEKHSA

Compound: CC(C)(CO)n1nc(-c2ccc3oc(N)nc3c2)c2c(N)ncnc21 [Compound 27]
- IC50 (PI3K α; Table 1): < 10000 nM
- IC50 (PI3K β; Table 1): > 10000 nM
- IC50 (PI3K γ; Table 1): > 10000 nM
- IC50 (PI3K δ; Table 1): < 1000 nM

Compound: CCOC(=O)Cn1nc(-c2cc3cc(O)ccc3[nH]2)c2c(N)ncnc21 [Compound 28]
- IC50 (mTOR): 100 to 500 nM
- IC50 (PI3K α; Table 2): > 500 nM
- IC50 (PI3K β; Table 2): > 500 nM
- IC50 (PI3K δ; Table 2): > 500 nM

Compound: COc1cc2cc(-c3nn(C(C)C)c4ncnc(N)c34)[nH]c2cc1Cl [Compound 29]
- IC50 (mTOR): > 500 nM

Compound: CC(=O)N1CCC(n2nc(-c3cc4cc(O)ccc4[nH]3)c3c(N)ncnc32)CC1 [Compound 30]
- IC50 (mTOR): 10 to 25 nM
- IC50 (PI3K α; Table 2): > 500 nM
- IC50 (PI3K β; Table 2): > 500 nM
- IC50 (PI3K δ; Table 2): > 500 nM

Compound: Nc1ncnc2c1c(-c1cc3cc(O)ccc3[nH]1)nn2C1CCN(C(=O)C2CC2)CC1 [Compound 31]
- IC50 (mTOR): 10 to 25 nM
- IC50 (PI3K α; Table 2): > 500 nM
- IC50 (PI3K β; Table 2): > 500 nM
- IC50 (PI3K δ; Table 2): 100 to 500 nM

Compound: CC(C)n1nc(-c2cc3cc(O)c(Cl)cc3[nH]2)c2c(N)ncnc21 [Compound 32]
- IC50 (mTOR): 100 to 500 nM
- IC50 (PI3K α; Table 2): > 500 nM
- IC50 (PI3K γ; Table 2): > 500 nM
- IC50 (PI3K δ; Table 2): > 500 nM

Compound: Nc1ncnc2c1c(-c1cc3cc(O)ccc3[nH]1)nn2CCN1CCOCC1 [Compound 33]
- IC50 (mTOR): 100 to 500 nM
- IC50 (PI3K α; Table 2): > 500 nM
- IC50 (PI3K γ; Table 2): > 500 nM
- IC50 (PI3K δ; Table 2): > 500 nM

Compound: Nc1ncnc2c1c(-c1cc3cc(O)ccc3[nH]1)nn2CC(=O)N1CCOCC1 [Compound 34]
- IC50 (mTOR): > 500 nM
- IC50 (PI3K α; Table 2): > 500 nM
- IC50 (PI3K γ; Table 2): > 500 nM
- IC50 (PI3K δ; Table 2): > 500 nM

Compound: CNC(=O)Cn1nc(-c2cc3cc(O)ccc3[nH]2)c2c(N)ncnc21 [Compound 35]
- IC50 (mTOR): > 500 nM
- IC50 (PI3K α; Table 2): > 500 nM
- IC50 (PI3K γ; Table 2): > 500 nM
- IC50 (PI3K δ; Table 2): > 500 nM

Compound: CC(C)n1nc(-c2cc3c(O)cccc3[nH]2)c2c(N)ncnc21 [Compound 37]
- IC50 (mTOR): > 500 nM
- IC50 (PI3K α; Table 2): 100 to 500 nM
- IC50 (PI3K γ; Table 2): 100 to 500 nM
- IC50 (PI3K δ; Table 2): 100 to 500 nM

Compound: Nc1ncnc2c1c(-c1cc3cc(O)ccc3[nH]1)nn2Cc1cccnc1 [Compound 38]
- IC50 (mTOR): 100 to 500 nM
- IC50 (PI3K α; Table 2): > 500 nM
- IC50 (PI3K γ; Table 2): > 500 nM
- IC50 (PI3K δ; Table 2): > 500 nM

Compound: CC(C)n1nc(-c2cc3c(Cl)ccc(O)c3[nH]2)c2c(N)ncnc21 [Compound 39]
- IC50 (mTOR): 5 to 10 nM
- IC50 (PI3K α; Table 2): > 500 nM
- IC50 (PI3K γ; Table 2): > 500 nM
- IC50 (PI3K δ; Table 2): > 500 nM

Compound: COCCn1nc(-c2cc3cc(O)ccc3[nH]2)c2c(N)ncnc21 [Compound 40]
- IC50 (mTOR): 50 to 100 nM
- IC50 (PI3K α; Table 2): > 500 nM
- IC50 (PI3K γ; Table 2): > 500 nM
- IC50 (PI3K δ; Table 2): > 500 nM

Compound: Nc1ncnc2c1c(-c1cc3cccc(O)c3[nH]1)nn2C1CCN(C(=O)C2CC2)CC1 [Compound 41]
- IC50 (mTOR): 5 to 10 nM
- IC50 (PI3K α; Table 2): > 500 nM
- IC50 (PI3K β; Table 2): > 500 nM
- IC50 (PI3K γ; Table 2): 25 to 50 nM
- IC50 (PI3K δ; Table 2): > 500 nM

Compound: Nc1ncnc2c1c(-c1cc3cc(O)ccc3[nH]1)nn2C1CCOCC1 [Compound 42]
- IC50 (mTOR): < 5 nM
- IC50 (PI3K α; Table 2): > 500 nM
- IC50 (PI3K β; Table 2): > 500 nM
- IC50 (PI3K δ; Table 2): 50 to 100 nM

Compound: CNC(=O)CCn1nc(-c2cc3cc(O)ccc3[nH]2)c2c(N)ncnc21 [Compound 43]
- IC50 (mTOR): > 500 nM
- IC50 (PI3K α; Table 2): > 500 nM
- IC50 (PI3K β; Table 2): > 500 nM
- IC50 (PI3K δ; Table 2): > 500 nM

Compound: Cc1nccn1CCn1nc(-c2cc3cc(O)ccc3[nH]2)c2c(N)ncnc21 [Compound 44]
- IC50 (mTOR): 50 to 100 nM
- IC50 (PI3K α; Table 2): > 500 nM
- IC50 (PI3K β; Table 2): > 500 nM
- IC50 (PI3K δ; Table 2): > 500 nM

Compound: CC(C)n1nc(-c2cc3cc(O)ccc3[nH]2)c2c(N)nccc21 [Compound 45]
- IC50 (mTOR): > 500 nM

Compound: Nc1ncnc2c1c(-c1cc3c(Cl)cccc3[nH]1)nn2C1CCOCC1 [Compound 48]
- IC50 (mTOR): 25 to 50 nM
- IC50 (PI3K α; Table 2): > 500 nM
- IC50 (PI3K β; Table 2): > 500 nM
- IC50 (PI3K γ; Table 2): > 500 nM
- IC50 (PI3K δ; Table 2): > 500 nM

Compound: Nc1ncnc2c1c(-c1cc3cc(O)ccc3[nH]1)nn2C1CC(N2CCOCC2)C1 (stereo not drawn) [Compound 49]
- IC50 (mTOR): 5 to 10 nM
- IC50 (PI3K α; Table 2): > 500 nM
- IC50 (PI3K β; Table 2): > 500 nM
- IC50 (PI3K γ; Table 2): 100 to 500 nM
- IC50 (PI3K δ; Table 2): 100 to 500 nM

Compound: CC(C)n1nc(-c2cc3cccc(Cl)c3[nH]2)c2c(N)ncnc21 [Compound 50]
- IC50 (mTOR): 25 to 50 nM
- IC50 (PI3K α; Table 2): > 500 nM
- IC50 (PI3K β; Table 2): > 500 nM
- IC50 (PI3K γ; Table 2): 100 to 500 nM
- IC50 (PI3K δ; Table 2): 100 to 500 nM

Compound: Nc1ncnc2c1c(-c1cc3cc(O)ccc3[nH]1)nn2C1CC(=O)C1 [Compound 53]
- IC50 (mTOR): 50 to 100 nM
- IC50 (PI3K α; Table 2): > 500 nM
- IC50 (PI3K β; Table 2): > 500 nM
- IC50 (PI3K γ; Table 2): > 500 nM

Compound: Nc1ncnc2c1c(-c1cc3cc(O)ccc3[nH]1)nn2C1CC(O)C1 (stereo not drawn) [Compound 54]
- IC50 (mTOR): 10 to 25 nM
- IC50 (PI3K α; Table 2): > 500 nM
- IC50 (PI3K β; Table 2): > 500 nM
- IC50 (PI3K γ; Table 2): > 500 nM

Compound: CC(C)N1CCC(n2nc(-c3cc4cc(O)ccc4[nH]3)c3c(N)ncnc32)CC1 [Compound 55]
- IC50 (mTOR): 100 to 500 nM
- IC50 (PI3K α; Table 2): > 500 nM
- IC50 (PI3K β; Table 2): > 500 nM
- IC50 (PI3K γ; Table 2): > 500 nM

Compound: CC(C)N1CCC(n2nc(-c3cc4cc(O)cc(Cl)c4[nH]3)c3c(N)ncnc32)CC1 [Compound 56]
- IC50 (mTOR): > 500 nM
- IC50 (PI3K α; Table 2): > 500 nM
- IC50 (PI3K β; Table 2): > 500 nM
- IC50 (PI3K γ; Table 2): > 500 nM

Compound: Nc1ncnc2c1c(-c1cc3cc(O)ccc3[nH]1)nn2C1CCC(N2CCOCC2)CC1 (stereo not drawn) [Compound 57]
- IC50 (mTOR): 10 to 25 nM
- IC50 (PI3K α; Table 2): > 500 nM
- IC50 (PI3K β; Table 2): > 500 nM
- IC50 (PI3K γ; Table 2): > 500 nM

Compound: CN1CCN(C2CCC(n3nc(-c4cc5cc(O)ccc5[nH]4)c4c(N)ncnc43)CC2)CC1 (stereo not drawn) [Compound 58]
- IC50 (mTOR): > 500 nM
- IC50 (PI3K α; Table 2): > 500 nM
- IC50 (PI3K β; Table 2): > 500 nM
- IC50 (PI3K γ; Table 2): > 500 nM

Compound: COc1ccc2cc(-c3nn(C4CCOCC4)c4ncnc(N)c34)[nH]c2c1 [Compound 59]
- IC50 (mTOR): > 500 nM
- IC50 (PI3K α; Table 2): > 500 nM
- IC50 (PI3K β; Table 2): > 500 nM
- IC50 (PI3K γ; Table 2): > 500 nM

Compound: Nc1ncnc2c1c(-c1cc3ccc(O)cc3[nH]1)nn2C1CCOCC1 [Compound 60]
- IC50 (mTOR): 50 to 100 nM
- IC50 (PI3K α; Table 2): > 500 nM
- IC50 (PI3K β; Table 2): > 500 nM
- IC50 (PI3K γ; Table 2): 50 to 100 nM
